Results on 16 compounds are retold here after patent publication US9340577B2, “HLA binding motifs and peptides and their uses” (priority 1992, dated 2016).

Holding throughout (test): biochemical
The target of one experiment is DR4w4 (DRB1*0401) (Homo sapiens, UniProt P01903+P01911, A100K/A169T/F76Y/I96L/K127E/L162R/M171V/N62H/P40V/Q125Y/R42H/S133A/S149N/S66Y/V115G/V209L/W38E). The class given is binding.
For the next experiment, the target named is DRB1*0802 (Homo sapiens, UniProt P01903+P01911, A100R/A103L/A169T/F76Y/H45Y/I96F/K41T/L162R/M171V/P40S/Q125H/Q178H/Q39Y/Q99D/R218S/R42G/S66Y/V115G/W38E). The class given is binding.
A further experiment concerns the target DRB1*0301 (Homo sapiens, UniProt P01903+P01911, A100K/A102G/A103R/A169T/F55Y/I96L/K41T/L162R/M171V/P40S/Q125H/Q178H/Q39Y/R42S/S66N/T106N/T262R/W38E/Y61H). The class given is binding.
Another experiment addresses DRB1*0901 (Homo sapiens, UniProt P01903+P01911, A100R/A103E/D57H/D86V/F55Y/F60I/F76Y/I96F/K127E/L162R/M171V/P40D/Q125H/Q99R/R33Q/R42F/S133A/S66N/T210M/V115G/W38K/Y107V/Y59G/Y89S). The class given is binding.
The target of a further experiment is DRB5*0101 (Homo sapiens, UniProt P01903+Q30154). The conditions noted are these: Binding affinity DRB5 *0101.
In a further experiment the target is DR1 (DRB1*0101) (Homo sapiens, UniProt P01903+P01911, A100R/D57E/F55L/F60I/F76Y/I96L/L162R/M171V/P40L/Q125E/R42F/V115G/Y59C). The class given is binding.
The next experiment concerns the target DRB1*1101 (Homo sapiens, UniProt P01903+P01911, A100R/A169T/A87E/I96F/K41T/L162R/M171V/P40S/Q125H/Q178H/Q39Y/Q99D/R42S/S66Y/T262R/V115G/W38E). The conditions noted are these: Binding affinity DRB1 *1101.
A further experiment has as its target DRB1*0405 (Homo sapiens, UniProt P01903+P01911, A100R/A169T/D86S/F76Y/I96L/K127E/L162R/M171V/N62H/P40V/Q125Y/R42H/S133A/S149N/S66Y/V115G/V209L/W38E). The class given is binding.
The target of another experiment is DRB1*1302 (Homo sapiens, UniProt P01903+P01911, A100E/A169T/K41T/L162R/M171V/P40S/Q125H/Q178H/Q39Y/Q99D/R42S/S66N/T262R/V115G/W38E/Y61H). The class given is binding.
Another experiment concerns the target DRB1*1501 (Homo sapiens, UniProt P01903+P01911). The class given is binding.
In a further experiment the target is DR7 (DRB1*0701) (Homo sapiens, UniProt P01903+P01911, A100R/A102G/A103Q/D57E/D86V/E43K/F76Y/K127E/L162R/M171V/P40G/Q125H/Q99D/R33Q/R42Y/R54Q/S133A/S66F/T210M/V115G/Y107V/Y59L/Y89S). The experiment is classed as binding.
In another experiment the target is DRB4*0101 (Homo sapiens, UniProt P01903+P13762, G164S). The experiment is classed as binding.

No end group written: not given here. Some results are limits rather than exact numbers.

Sequence of DRB1*1101 (P01903 26-254 limits assumed, other chains not shown): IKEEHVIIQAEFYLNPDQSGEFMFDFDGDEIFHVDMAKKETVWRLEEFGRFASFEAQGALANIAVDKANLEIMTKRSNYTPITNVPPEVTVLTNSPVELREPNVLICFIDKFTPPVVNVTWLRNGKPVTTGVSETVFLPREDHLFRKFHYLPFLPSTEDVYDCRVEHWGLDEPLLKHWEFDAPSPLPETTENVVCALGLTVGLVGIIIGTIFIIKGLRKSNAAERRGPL
Sequence of DRB1*1302 (P01903 26-254 limits assumed, other chains not shown): as above
Sequence of DRB1*0301 (P01903 26-254 limits assumed, other chains not shown): as above

For KHIRLLECVLMYKARE [Peptide 1601.44], the IC50 (commonly the concentration that inhibits the measured activity by half) against DR4w4 (DRB1*0401) amounted to 0.067 µM; at DRB1*0802 it was 1.77 µM; against DRB1*0301 it was 0.072 µM; against DRB1*0901, 7.48 µM; on DRB5*0101 it was 1.63 µM; at DR1 (DRB1*0101), 0.12 µM. Moreover, the IC50 on DRB1*1101 stood at 0.613 µM; against DRB1*0405, 0.236 µM; against DRB1*1302, 0.418 µM; against DRB1*1501 it was 0.074 µM; at DR7 (DRB1*0701), 6.7 µM; against DRB4*0101, 0.039 µM.

On to TAIFGVNPTIAEGFK [Peptide 89.0024], for which the IC50 against DRB1*0802 stood at 11.1 µM; at DRB1*0301, 0.374 µM; against DRB1*0901 it was 4.48 µM; at DRB5*0101 it was 17.9 µM; on DRB1*1101 it was 4.04 µM; against DRB1*0405 it was 0.017 µM. Besides, the IC50 against DRB1*1501 came out at 11.5 µM; at DR7 (DRB1*0701) it was 0.18 µM; on DRB4*0101, 0.592 µM.

As for IIHLKGDKNSLKCLR [Peptide 90.0218], the IC50 against DR4w4 (DRB1*0401) came to 0.347 µM; against DRB1*0301, 0.042 µM; at DRB5*0101, 9.92 µM; on DRB1*0405, 12.7 µM; against DRB1*1302, 1.33 µM; at DRB1*1501, 0.137 µM. Besides, the IC50 against DRB4*0101 stood at 1.44 µM.

Take KIGMIDDVTPISWTY [Peptide 90.0087]: the IC50 at DR4w4 (DRB1*0401) was 0.02 µM; against DRB1*0802, 8.37 µM; at DRB1*0301, 0.07 µM; on DRB1*0901, greater than 20 µM; on DRB5*0101, greater than 20 µM; against DR1 (DRB1*0101) it was 3.22 µM. Further, the 50% inhibitory concentration (IC50) on DRB1*1101 was greater than 20 µM; against DRB1*0405 it was greater than 20 µM; at DRB1*1302, 0.0098 µM; on DRB1*1501 it was 4.46 µM; at DR7 (DRB1*0701), greater than 20 µM; against DRB4*0101, 3.12 µM.

Regarding LYGVSFMELIRPFQS [Peptide 89.0041], the IC50 against DR4w4 (DRB1*0401) was 5.21 µM; at DRB1*0301, greater than 20 µM; on DRB1*0901, 0.064 µM; on DRB5*0101 it was 6.04 µM; at DRB1*1101, 0.039 µM; on DRB1*0405, 1.8 µM. Further, the IC50 on DRB1*1302 was greater than 20 µM; against DRB1*1501, 1.55 µM; against DRB4*0101, 0.0022 µM.

In the case of AFQVIELQMALETLS [Peptide 89.0181], the half-maximal inhibitory concentration (IC50) on DR4w4 (DRB1*0401) turned out to be 0.062 µM; on DRB1*0802 it was 8.16 µM; against DRB1*0301, 0.033 µM; on DRB5*0101 it was 1.69 µM; on DR1 (DRB1*0101), 3.11 µM; at DRB1*1101, 2.14 µM. Besides, the 50% inhibitory concentration (IC50) against DRB1*0405 is 0.252 µM; against DRB1*1501, greater than 20 µM; against DRB4*0101, 0.349 µM.

Consider VMFLRYQGVEFMSFL [Peptide 89.0014], for which the IC50 on DR4w4 (DRB1*0401) is 0.927 µM; at DRB1*0802, 13.4 µM; against DRB1*0301 it was 18.7 µM; against DRB1*0901, 4.02 µM; at DRB5*0101, 0.701 µM; on DR1 (DRB1*0101), 0.605 µM. Also, the IC50 against DRB1*0405 came to 0.629 µM; at DRB1*1501, 0.03 µM; against DR7 (DRB1*0701), 2.54 µM; on DRB4*0101 it was 0.013 µM.

As to VMAIFGVNPTVAEGF [Peptide 89.0080], the IC50 at DR4w4 (DRB1*0401) was 0.077 µM; against DRB1*0802, greater than 20 µM; on DRB1*0301, 0.699 µM; against DRB1*0901, 12.9 µM; on DRB5*0101, 19.4 µM; against DR1 (DRB1*0101), 0.19 µM. The IC50 on DRB1*1101 worked out at 5.6 µM; on DRB1*0405 it was 0.017 µM; against DRB1*1302, 0.033 µM; against DR7 (DRB1*0701), 0.336 µM; at DRB4*0101 it was 0.08 µM.

For the compound HWKLIRMECAIMYTA [Peptide 90.0021], the IC50 against DRB1*0802 was found to be 14.1 µM; against DRB1*0301, 0.082 µM; at DRB5*0101, 3.07 µM; on DR1 (DRB1*0101) it was 0.028 µM; against DRB1*0405 it was 0.084 µM; at DRB1*1302, 0.054 µM. Besides, the IC50 worked out at 3.84 µM against DRB1*1501, 2.64 µM on DR7 (DRB1*0701) and 0.161 µM at DRB4*0101.

With AKLMSNLLSIPETCM [Peptide 89.0066], the IC50 against DR4w4 (DRB1*0401) is 0.099 µM; against DRB1*0802, greater than 20 µM; on DRB1*0301, 12.8 µM; on DRB1*0901, 9.14 µM; at DRB5*0101, greater than 20 µM; against DR1 (DRB1*0101), 0.323 µM. Besides, the IC50 on DRB1*1101 was 14.6 µM; at DRB1*0405, 0.034 µM; at DRB1*1302, 0.012 µM; at DRB1*1501, 3.43 µM; against DR7 (DRB1*0701), 0.388 µM; at DRB4*0101 it was 0.421 µM.

Regarding VSKLMSQLLNIPETH [Peptide 89.0101], the half-maximal inhibitory concentration (IC50) was 10.6 µM on DR4w4 (DRB1*0401); greater than 20 µM against DRB1*0802; 0.922 µM against DRB1*0301; greater than 20 µM against DRB1*0901; greater than 20 µM at DRB5*0101; greater than 20 µM against DR1 (DRB1*0101). The IC50 at DRB1*1101 was greater than 20 µM; against DRB1*1302, 9.53 µM; at DRB1*1501 it was greater than 20 µM; at DR7 (DRB1*0701), greater than 20 µM; against DRB4*0101 it was greater than 20 µM.

Turning to ETCMLIQPPKLRSSV [Peptide 89.0029], the IC50 against DR4w4 (DRB1*0401) is 0.901 µM; against DRB1*0802 it was 5.08 µM; against DRB1*0301 it was greater than 20 µM; at DRB1*0901, 19.5 µM; against DR1 (DRB1*0101), 0.06 µM; against DRB1*0405, 1.56 µM. For the same compound, the IC50 against DRB1*1302 was determined as 3.05 µM; on DRB1*1501, 1.7 µM; at DR7 (DRB1*0701) it was 0.354 µM; at DRB4*0101 it was 0.081 µM.

Consider `CC[C@H](C)[C@H](NC(=O)CNC(=O)[C@H](CCC(=O)O)NC(=O)[C@H](Cc1c[nH]cn1)NC(=O)[C@@H](NC(=O)[C@H](Cc1ccc(O)cc1)NC(=O)[C@H](Cc1ccc(O)cc1)NC(=O)[C@H](CC(C)C)NC(=O)CN)C(C)C)C(=O)N[C@@H](CCCNC(=N)N)C(=O)N[C@H](C(=O)N[C@@H](Cc1ccc(O)cc1)C(=O)N[C@@H](Cc1ccccc1)C(=O)N[C@H](C(=O)N[C@@H](CCC(N)=O)C(=O)O)C(C)C)[C@@H](C)O` [Peptide 90.0171], for which the concentration for half-maximal inhibition (IC50) was 0.668 µM against DR4w4 (DRB1*0401); 7.38 µM against DRB1*0802; 0.689 µM at DRB1*0301; 1 µM against DRB1*0901; greater than 20 µM at DRB5*0101; 0.026 µM against DR1 (DRB1*0101). In addition, the concentration for half-maximal inhibition (IC50) was found to be 5.36 µM at DRB1*1101; 4.66 µM on DRB1*0405; 0.532 µM against DRB1*1302; 1.62 µM against DRB1*1501; 5.58 µM against DR7 (DRB1*0701); 0.0019 µM on DRB4*0101.

As for EVQIALESLSTTIYN [Peptide 90.0231], the IC50 at DR4w4 (DRB1*0401) was 1.28 µM; against DRB1*0802, greater than 20 µM; on DRB1*0301 it was 0.708 µM; at DRB1*0901 it was 0.406 µM; on DRB5*0101 it was greater than 20 µM; on DRB1*1101, greater than 20 µM. Further, the IC50 was 4.27 µM against DRB1*0405, 0.0043 µM against DRB1*1302, 0.032 µM against DR7 (DRB1*0701) and 0.039 µM against DRB4*0101.

On to QHSFNDDIFDLSEMI [Peptide 90.0152], for which the IC50 against DR4w4 (DRB1*0401) was 0.037 µM; on DRB1*0802 it was 7.61 µM; at DRB1*0301, 0.534 µM; on DR1 (DRB1*0101), 0.042 µM; on DRB1*1101 it was 4.38 µM; against DRB1*0405, 0.384 µM. Moreover, the values for the IC50 on DRB1*1302, against DRB1*1501 and against DRB4*0101 were 0.017 µM, 0.688 µM and 0.0021 µM, respectively.

As to AYGISFMELVRPFKS [Peptide 89.0060], the IC50 was determined as 1.72 µM against DR4w4 (DRB1*0401); 0.158 µM against DRB1*0802; 7.09 µM against DRB1*0301; 3.03 µM on DRB5*0101; 0.64 µM on DR1 (DRB1*0101); 0.051 µM at DRB1*1101. Moreover, the IC50 amounted to 4.26 µM on DRB1*0405, 4.49 µM against DRB1*1302 and 0.031 µM at DRB4*0101.
